From patent US11617748B2, “Meclozine derivatives and diclazuril derivatives for use in the prevention and/or the treatment of disorders associated to the inflammation induced by P. acnes” (priority 2016, dated 2023)

Legend:
Format in all cases: cell-based, human
ERK = test: Western blot of p-ERK/ERK in P. acnes-stimulated HaCaT cells; conditions: 24 h pre-treatment; for phosphorylation of ERKs induced by P. acnes: 10 μM; for phosphorylation of ERK induced by P. acnes: 25 μM
Procedure: (§1) Western Blot analysis. Whole cell protein extracts (25 μg) were separated by electrophoresis (LDS-PAGE) under denaturing conditions with NuPAGE Novex 4-12% Bis-Tris gel (1 mm, 12 wells, Invitrogen, UK) and proteins were transferred onto nitrocellulose membranes and saturated in 20 ml of saturation buffer consisting of TBS 1× (Tris Buffered Saline) containing 200 mM Tris, 1.4 M NaCl (pH 7.6), 5% no fat milk, 0.1% Tween 20 for 1 h. After washing three times for 15 min with 15 ml of TBS/T buffer [1×TBS, 0.1% Tween-20], membranes were incubated overnight with gentle mixing at 4° C. with 10 ml of rabbit polyclonal primary antibodies against human ICAM-1 (SC-7891, 1:500), PPARα (SC-398394, 1:250), PPARβ (SC-74517, 1:200), PPARγ (SC-7196, 1:500), IκB (SC-371, 1:500), p-IκB (SC-7977, 1:500), Cox-2 (SC-7951, 1:250), p-mTOR (CS, Ref 2974, 1:1000), mTOR (CS, Ref 2972, 1:1000), p-p38 (SC-17852, 1:500), p38 (SC-535, 1:250), ERK (SC-94, 1:500), JNK (SC-571, 1:500), and mouse monoclonal primary antibodies against human p-PI3 kinase (CS, Ref 4228, 1:250), PI3 kinase (CS, Ref 4257, 1:250), p-Akt1/2/3 (SC-81433, 1:500), p-ERK (SC-7383, 1:500), p-JNK (SC-6254, 1:500), -actin used to control loading, (SC-47778, 1:1000) diluted in TBS/T supplemented with 5% BSA (antibodies were purchased from Santa Cruz Biotechnology, Inc., Santa Cruz, Calif., USA abbreviated SC; and from Cell Signaling Technology, Inc. Leiden, The Netherlands abbreviated CS above). After washing to remove unbound antibodies, bound primary antibodies were detected by incubation for 1 h using secondary antibody against rabbit- and mouse IgG (Santa Cruz Biotechnology, SC-2357, 1:5000 and SC-2005, 1:5000, respectively). Unbound material was removed by washing and peroxidase activity was detected in a chemiluminescence assay (WesternBright ECL, Advansta, Menlo Park, USA).
The molecular basis for the inhibition of IL-8 production by diclazuril and meclozine has been investigated, in particular it has been evaluated if they interfered with signaling pathways known to be activated when keratinocytes are stimulated with P. acnes. It has first been confirmed the activation of IL-8 production when cells were stimulated by P. acnes while pre-treatment with both, diclazuril and meclozine, inhibit such production (FIG. 4A).
We also shown that the activation of HaCaT keratinocytes by P. acnes led to the activation of p-ERK, p-p38, p-JNK, p-PKC, p-Akt, p-mTOR (FIG. 15, panel P. acnes alone) and p-PI3K (FIG. 16, panel P. acnes alone).

IκB = test: Western blot of IκB / p-IκB in P. acnes-stimulated HaCaT cells; conditions: 24 h pre-treatment; for degradation of p-IκB: 25 μM, P. acnes 30 min-24 h
Procedure: as §1
The molecular basis for the inhibition of IL-8 production by diclazuril and meclozine has been investigated, in particular it has been evaluated if they interfered with signaling pathways known to be activated when keratinocytes are stimulated with P. acnes. […]

Cox-2 = test: Western blot of Cox-2 expression in P. acnes-stimulated HaCaT cells; conditions: 25 μM, 24 h pre-treatment
Procedure: (§2) Western Blot analysis. Whole cell protein extracts (25 μg) were separated by electrophoresis (LDS-PAGE) under denaturing conditions with NuPAGE Novex 4-12% Bis-Tris gel (1 mm, 12 wells, Invitrogen, UK) and proteins were transferred onto nitrocellulose membranes and saturated in 20 ml of saturation buffer consisting of TBS 1× (Tris Buffered Saline) containing 200 mM Tris, 1.4 M NaCl (pH 7.6), 5% no fat milk, 0.1% Tween 20 for 1 h. […] After washing to remove unbound antibodies, bound primary antibodies were detected by incubation for 1 h using secondary antibody against rabbit- and mouse IgG (Santa Cruz Biotechnology, SC-2357, 1:5000 and SC-2005, 1:5000, respectively). Unbound material was removed by washing and peroxidase activity was detected in a chemiluminescence assay (WesternBright ECL, Advansta, Menlo Park, USA). […]

PPARα = test: Western blot of PPARα expression in P. acnes-stimulated HaCaT cells; conditions: 25 μM, 24 h pre-treatment
Procedure: as §2

IL-1β mRNA = test: RT-qPCR of P. acnes-induced IL-1β mRNA in ThP-1 cells; conditions: 10 μM, 24 h pre-treatment, 5 h P. acnes
Procedure: RT-qPCR assay. […] Total RNA was isolated using the NucleoSpin RNA and treated with DNAse I, according to the manufacturer's instructions (Macherey-Nagel, Hoerdt, France). RNA concentration was determined at 260 nm on a nanodrop (Labtech, France) and the ratios for all samples were ranging between 1.6 and 1.9. Complementary DNA were generated from 100 ng of total RNA at 50° C. for 10 min followed by the quantitative PCR analysis, carried out in the LightCycler Nano (Roche), and performed with the iTaq Universal SYBR Green One-Step kit (Bio-Rad Laboratories, Hercules, Calif., USA) with a 2-step cycles conditions set at 95° C. for 60 s followed by 40 cycles of 95° C. for 15 s, 68° C. for 60 s, and ended by a melting curve at 65-95° C., 60 s with 0.1° C./s. From the amplification curves, the threshold cycles (Ct) are determined for the studied genes. The amount of relative RNA in stimulated cells relative to control cells is calculated according to the method of 2Act and expressed as a relative fold change expression normalized to gene expression of internal control (GAPDH). IL-8 primers were used: sens 5′-[sequence]-3′, anti-sens 5′-[sequence]-3′ and GAPDH primers: sens 5′-[sequence]-3′, GADPH anti-sens 5′-[sequence]-3′. Sample quantification was made in triplicate.
Controls experiments were done with unpretreated/unstimulated cell and with P. acnes stimulated cells only.

IL-8 production [1] = test: PGN-induced IL-8 production in HaCaT keratinocytes (ELISA); conditions: 6.25 μM, 24 h pre-treatment, PGN 5, 10, 20 μg/ml for 18 h
Procedure: (§3) ELISA. Human IL-1β, IL-8, hBD-2 and TNF-α protein concentration were measured in the supernatants of stimulated cells using various ELISA Sets (all from Ready-Set-Go from eBioscience, except hBD-2 measurements: Human DEFB4A/BD-2 ELISA Kit from LSBio) according to the manufacturer's instructions. We used serial dilutions of recombinant human IL-1β, IL-8, hBD-2 and TNF-α for standard curve. The optical density was determined at 450 nm at a wavelength correction of 540 nm.
Previously it has been shown that diclazuril and meclozine were able to inhibit IL-8 and IL-1β productions at the transcriptional and […] levels in pretreated cells stimulated with P. acnes. Here, it is investigated if the nature of the cell stimuli would have an impact on the diclazuril and meclozine effects on the IL-8 and IL-1β productions. Both, HaCaT and ThP-1 cell lines were pretreated with several concentrations of diclazuril and meclozine ranging from 0.39 to 25 μM for 24 h, and then stimulated with 3 different concentrations of peptidoglycanne (PGN) and lipoteicoic acid (LTA) at 5, 10 and 20 μg/ml for 18 h at 37° C. […] Pretreatment of keratinocytes with diclazuril decreased the production of IL-8 by an average of 65% at 6.25 μM regardless of the initial PGN dose used (FIG. 5A). Same results were obtained with meclozine and at 6.25 μM the IL-8 production was reduced by 60% (FIG. 5B).

IL-8 production [2] = test: IL-8 production by M5-stimulated NHDK, in vitro psoriasis-like model (ELISA); conditions: NHDK + M5, 48 h
Procedure: Cell culture, pretreatment and stimulation.
as §3

## Cc1cccc(CN2CCN(C(c3ccccc3)c3ccc(Cl)cc3)CC2)c1 (stereo not drawn) [meclozine, Meclozine]
ERK
  phosphorylation of ERKs induced by P. acnes: prevented the phosphorylation of ERKs
  phosphorylation of ERK induced by P. acnes: prevented the phosphorylation
IκB
  degradation of p-IκB: did not alter the degradation of p-IκB
Cox-2
  expression of Cox-2: strongly decrease
PPARα
  expression of PPARα: strongly decrease
IL-1β mRNA
  inhibition of IL-1β mRNA production: ≤ 38%
IL-8 production [1]
  decrease of PGN-induced IL-8 production: 60%
IL-8 production [2]; 0.39 to 12.5 μM
  effect on IL-8 production, in words: no effect

## N#CC(c1ccc(Cl)cc1)c1c(Cl)cc(-n2ncc(=O)[nH]c2=O)cc1Cl (stereo not drawn) [diclazuril, Diclazuril]
ERK
  phosphorylation of ERKs induced by P. acnes: prevented the phosphorylation of ERKs
  phosphorylation of ERK induced by P. acnes: prevented the phosphorylation
IκB; 10 μM, P. acnes 15-180 min
  degradation of IκB: did not prevented the degradation of IκB
IκB
  degradation of p-IκB: did not alter the degradation of p-IκB
Cox-2
  expression of Cox-2: decrease
PPARα
  expression of PPARα: no change
IL-1β mRNA
  inhibition of IL-1β mRNA production: up to 91%
IL-8 production [1]
  decrease of PGN-induced IL-8 production: 65%
IL-8 production [2]; Homo sapiens, read-out: IC50 of decrease of IL-8 production
  IC50: 2000 to 3000 nM
IL-8 production [2]; at 3,125 μM
  decrease of IL-8 production: 66%
